Drawing on US20080280974A1, “Spiro compounds for treatment of inflammatory disorders” (priority 2007, published 2008), this text covers inhibition in vivo and melting point for 13 compounds.

In data set [1] the test system is Balb/CJ mice, ovalbumin-sensitized and challenged. Kind of data set: Mouse model of asthma: methacholine-induced airway reactivity (Penh) in ovalbumin-sensitized mice. The class given is in vivo. The conditions noted are these: po, 768 h, 50 mg/kg p.o., days 26-32, % inhibition of the PenH vs McH dose AUC compared with vehicle control, day 32, read-out: Reduction of Penh AUC at 50 mg/kg p.o. As to the method: Protocol for Testing Compounds in a Mouse Model of Asthma
Male 5-6 week old Balb/CJ mice were obtained from Jackson Laboratories (Bar Harbor, Me.). All experimental animals were used in accordance to Institutional Animal Care and Use Committee of AtheroGenics, Inc. Mice were sensitized by administering an intraperitoneal injection of 20 μg of ovalbumin (Calbiochem, La Jolla, Calif.) adsorbed in 2 mg of alum (Imject Alum; Pierce, Rockford, Ill.) on day 0 and 14. A group of mice received saline and served as negative control animals. The mice were challenged by aerosol exposure to ovalbumin (1% [wt/vol]) for 25 minutes on 3 consecutive days (days 28, 29, and 30) in a plexiglas exposure chamber coupled to an Aeroneb nebulizer (Buxco Electronics, Wilmington, N.C.). Experimental compounds were dissolved in Glycofurol/PEG 300/Tween (35%/55%/10%) (Sigma-aldrich; Milwaukee, Wis.). Animals were dosed orally with either test compound or vehicle (6 ml/kg dosing volume) on days 26-32 of study. Compound or vehicle was administered 2 hour before the aerosol challenge on days 28, 29, and 30 and 1 hour before airway reactivity measurement on day 32.
Methacholine-induced airway reactivity was assessed on day 32. Methacholine was administered in increasing concentrations ([…], 1.5, 3, 6, 12, 25, and 50 mg/ml) to unrestrained mice. Increases in airway resistance to Methacholine were determined as enhanced pause, (Penh) values, during and after the exposure (6-minute total analysis time). Mice were then humanely euthanized with an overdose of ketamine/xylazine and plasma samples collected for determination of drug levels. The data is presented as the % inhibition of the PenH vs McH dose AUC compared with the vehicle control.
Data analysis was conducting using the software package, JMP (SAS Institute Inc; Cary, N.C.). The Dunnett's multiple comparison test was used to compare treatment group means to the vehicle control group. P values of less than 0.05 were considered statistically significant. The data (Table 1) are presented as the % inhibition of the PenH vs McH dose AUC compared with the vehicle control.

Consider `Cc1cc2c(cc1O)C(C)(C)CC1(CC(C)(C)c3cc(OC(C)(C)C(=O)O)c(C)cc3O1)O2` (stereo in doubt) [Example 10, (−)-(S)-(6′-Hydroxy-4,4,4′,4′,7,7′-hexamethyl-2,2′-spirobichroman-6-yloxy)-dimethylacetic acid], for which the inhibition in vivo at 50 mg/kg in data set [1] is < 20%.
What is called melting point is the temperature of the solid-liquid transition. The compound `Cc1cc2c(cc1O)C(C)(C)CC1(CC(C)(C)c3cc(OCC(=O)O[C@@H]4C[C@H](C)CC[C@H]4C(C)(C)c4ccccc4)c(C)cc3O1)O2` (mixture of isomers) [Example 26, (±)-(6′-Hydroxy-4,4,4′,4′,7,7′-hexamethyl-2,2′-spirobichroman-6-yloxy)-acetic acid 5(R)-Methyl-2(S)-(1-methyl-1-phenylethyl)-1(R)-cyclohexyl Ester] came in with a melting point of 88 to 93 °C.
Consider `C=CCc1c(O)c(C)cc2c1C(C)(C)CC1(CC(C)(C)c3c(cc(C)c(O)c3CC=C)O1)O2` (racemic) [Example 23, (±)-6,6′-Dihydroxy-5,5′-diallyl-4,4,4′,4′,7,7′-hexamethyl-2,2′-spirobichroman], for which the melting point was 95 to 97 °C. For the same compound, in data set [1], the inhibition in vivo at 50 mg/kg is < 20%.
In the case of `Cc1cc2c(cc1O)C(C)(C)CC1(CC(C)(C)c3cc(OCCCCO)c(C)cc3O1)O2` (racemic), the melting point is 235 to 236 °C.
`Cc1cc2c(cc1O)C(C)(C)CC1(CC(C)(C)c3cc(OCC(=O)OCc4ccccc4)c(C)cc3O1)O2` (racemic) [Example 25, (±)-(6′-Hydroxy-4,4,4′,4′,7,7′-hexamethyl-2,2′-spirobichroman-6-yloxy)-acetic acid Benzyl Ester] had a melting point of 60 to 65 °C.
As for `Cc1cc2c(cc1O)C(C)(C)CC1(CC(C)(C)c3cc(OC(C)(C)CO)c(C)cc3O1)O2` (racemic) [Example 11, (±)-6-(2-Hydroxy-1,1-dimethyl-ethoxy)-6′-hydroxy-4,4,4′,4′,7,7′-hexamethyl-2,2′-spirobichroman], the melting point was in the range of 188 to 189 °C. Moreover, in data set [1], the inhibition in vivo at 50 mg/kg is < 20%.
In the same order, the values of `Cc1cc2c(cc1O)C(C)(C)CC1(CC(C)(C)c3cc(OCC(N)=O)c(C)cc3O1)O2` (racemic) [Example 14, (±)-(6′-Hydroxy-4,4,4′,4′,7,7′-hexamethyl-2,2′-spirobichroman-6-yloxy)-acetamide] are 220 to 221 °C and < 20%.
As for `C=CCOc1cc2c(cc1C)OC1(CC2(C)C)CC(C)(C)c2cc(OCC=C)c(C)cc2O1` [Example 16, (±)-6,6′-Bisallyloxy-4,4,4′,4′,7,7′-hexamethyl-2,2′-spirobichroman], the melting point fell in the range of 98 to 100 °C.
Compound `Cc1cc2c(cc1O)C(C)(C)CC1(CC(C)(C)c3cc(O)c(C)cc3O1)O2` [Example 27, (−)-(S)-6,6′-dihydroxy-4,4,4′,4′,7,7′-hexamethyl-2,2′-spirobichroman] displayed a melting point of 165 to 166 °C. Also, in data set [1], the inhibition in vivo at 50 mg/kg is > 40%.
As to `Cc1cc2c(cc1O)C(C)(C)CC1(CC(C)(C)c3cc(OCC(C)(C)O)c(C)cc3O1)O2` (racemic) [Example 19, (±)-6′-Hydroxy-6-(2-hydroxy-2-methylpropoxy)-4,4,4′,4′,7,7′-hexamethyl-2,2′-spirobichroman], the inhibition in vivo at 50 mg/kg in data set [1] was < 20%.
Turning to `Cc1cc2c(cc1O)C(C)(C)C[C@]1(CC(C)(C)c3cc(OC(C)(C)C(=O)O)c(C)cc3O1)O2` (racemic) [Example 9, (±)-(R)-(6′-Hydroxy-4,4,4′,4′,7,7′-hexamethyl-2,2′-spirobichroman-6-yloxy)-dimethylacetic acid], the inhibition in vivo at 50 mg/kg in data set [1] is > 40%.
On the same count and under the same terms, the result for `Cc1cc2c(cc1O)C(C)(C)CC1(CC(C)(C)c3cc(O)c(C)cc3O1)O2` (single isomer, unassigned) [Example 28] reads 20 to 40%.
Compound `C=CCOc1cc2c(cc1C)OC1(CC(C)(C)c3cc(O)c(C)cc3O1)CC2(C)C` (racemic) yielded a melting point of 143 to 144 °C.
